From ChEMBL document CHEMBL1240437, “Structural characterization and antibacterial activity against clinical isolates of Staphylococcus of N-phenylamide of monensin A and its 1:1 complexes with monovalent cations” (2010)
In brackets after ≈: the same amount, converted by molar mass.

Key:
Assay type in all cases: functional
[1] = tested on: Staphylococcus aureus; assay: Antimicrobial activity against methicillin-resistant Staphylococcus aureus 307/08 after 18 hrs by disc-diffusion method; conditions: 307/08, 18 h
[2] = tested on: Staphylococcus aureus; assay: Antimicrobial activity against methicillin-resistant Staphylococcus aureus 331/08 after 18 hrs by disc-diffusion method; conditions: 331/08, 18 h
[3] = tested on: Staphylococcus aureus; assay: Antimicrobial activity against methicillin-susceptible Staphylococcus aureus 328/08 after 18 hrs by disc-diffusion method; conditions: 328/08, 18 h
[4] = tested on: Staphylococcus epidermidis; assay: Antimicrobial activity against methicillin-resistant Staphylococcus epidermidis 292/08 after 18 hrs by disc-diffusion method; conditions: 292/08, 18 h
[5] = tested on: Staphylococcus aureus; assay: Antimicrobial activity against methicillin-susceptible Staphylococcus aureus 322/08 after 18 hrs by disc-diffusion method; conditions: 322/08, 18 h
[6] = tested on: Staphylococcus aureus; assay: Antimicrobial activity against methicillin-resistant Staphylococcus aureus 333/08 after 18 hrs by disc-diffusion method; conditions: 333/08, 18 h
[7] = tested on: Staphylococcus aureus; assay: Antimicrobial activity against methicillin-resistant Staphylococcus aureus 329/08 after 18 hrs by disc-diffusion method; conditions: 329/08, 18 h
[8] = tested on: Staphylococcus epidermidis; assay: Antimicrobial activity against methicillin-resistant Staphylococcus epidermidis 317/08 after 18 hrs by disc-diffusion method; conditions: 317/08, 18 h
[9] = tested on: Staphylococcus epidermidis; assay: Antimicrobial activity against methicillin-resistant Staphylococcus epidermidis 318/08 after 18 hrs by disc-diffusion method; conditions: 318/08, 18 h
[10] = tested on: Staphylococcus aureus; assay: Antimicrobial activity against methicillin-resistant Staphylococcus aureus 332/08 after 18 hrs by disc-diffusion method; conditions: 332/08, 18 h
[11] = tested on: Staphylococcus epidermidis; assay: Antimicrobial activity against methicillin-resistant Staphylococcus epidermidis 311/08 after 18 hrs by disc-diffusion method; conditions: 311/08, 18 h
[12] = tested on: Staphylococcus aureus; assay: Antimicrobial activity against methicillin-susceptible Staphylococcus aureus 326/08 after 18 hrs by disc-diffusion method; conditions: 326/08, 18 h
[13] = tested on: Staphylococcus aureus; assay: Antimicrobial activity against methicillin-resistant Staphylococcus aureus 309/08 after 18 hrs by disc-diffusion method; conditions: 309/08, 18 h
[14] = tested on: Staphylococcus epidermidis; assay: Antimicrobial activity against methicillin-resistant Staphylococcus epidermidis 316/08 after 18 hrs by disc-diffusion method; conditions: 316/08, 18 h
[15] = tested on: Staphylococcus aureus; assay: Antimicrobial activity against methicillin-susceptible Staphylococcus aureus 321/08 after 18 hrs by disc-diffusion method; conditions: 321/08, 18 h
[16] = tested on: Staphylococcus aureus; assay: Antimicrobial activity against methicillin-susceptible Staphylococcus aureus 339/08 after 18 hrs by disc-diffusion method; conditions: 339/08, 18 h
[17] = tested on: Staphylococcus aureus; assay: Antimicrobial activity against methicillin-susceptible Staphylococcus aureus 338/08 after 18 hrs by disc-diffusion method; conditions: 338/08, 18 h
[18] = tested on: Staphylococcus aureus; assay: Antimicrobial activity against methicillin-resistant Staphylococcus aureus 335/08 after 18 hrs by disc-diffusion method; conditions: 335/08, 18 h
[19] = tested on: Staphylococcus epidermidis; assay: Antimicrobial activity against methicillin-resistant Staphylococcus epidermidis 289/08 after 18 hrs by disc-diffusion method; conditions: 289/08, 18 h
[20] = tested on: Staphylococcus aureus; assay: Antimicrobial activity against methicillin-susceptible Staphylococcus aureus 320/08 after 18 hrs by disc-diffusion method; conditions: 320/08, 18 h
[21] = tested on: Staphylococcus epidermidis; assay: Antimicrobial activity against methicillin-resistant Staphylococcus epidermidis 315/08 after 18 hrs by disc-diffusion method; conditions: 315/08, 18 h
[22] = tested on: Staphylococcus aureus; assay: Antimicrobial activity against methicillin-susceptible Staphylococcus aureus 324/08 after 18 hrs by disc-diffusion method; conditions: 324/08, 18 h
[23] = tested on: Staphylococcus aureus; assay: Antimicrobial activity against methicillin-resistant Staphylococcus aureus 330/08 after 18 hrs by disc-diffusion method; conditions: 330/08, 18 h
[24] = tested on: Staphylococcus epidermidis; assay: Antimicrobial activity against methicillin-resistant Staphylococcus epidermidis 293/08 after 18 hrs by disc-diffusion method; conditions: 293/08, 18 h
[25] = tested on: Staphylococcus aureus; assay: Antimicrobial activity against methicillin-resistant Staphylococcus aureus 334/08 after 18 hrs by disc-diffusion method; conditions: 334/08, 18 h
[26] = tested on: Staphylococcus aureus; assay: Antimicrobial activity against methicillin-susceptible Staphylococcus aureus 319/08 after 18 hrs by disc-diffusion method; conditions: 319/08, 18 h
[27] = tested on: Staphylococcus aureus; assay: Antimicrobial activity against methicillin-susceptible Staphylococcus aureus 327/08 after 18 hrs by disc-diffusion method; conditions: 327/08, 18 h
[28] = tested on: Staphylococcus epidermidis; assay: Antimicrobial activity against methicillin-resistant Staphylococcus epidermidis 291/08 after 18 hrs by disc-diffusion method; conditions: 291/08, 18 h
[29] = tested on: Staphylococcus epidermidis; assay: Antimicrobial activity against methicillin-resistant Staphylococcus epidermidis 290/08 after 18 hrs by disc-diffusion method; conditions: 290/08, 18 h
[30] = tested on: Staphylococcus aureus; assay: Antimicrobial activity against methicillin-resistant Staphylococcus aureus 308/08 after 18 hrs by disc-diffusion method; conditions: 308/08, 18 h

SMILES	MIC [1]	MIC [2]	MIC [3]	MIC [4]	MIC [5]	MIC [6]	MIC [7]	MIC [8]	MIC [9]	MIC [10]	MIC [11]	MIC [12]	MIC [13]	MIC [14]	MIC [15]	MIC [16]	MIC [17]	MIC [18]	MIC [19]	MIC [20]	also measured
CC[C@@]1([C@H]2O[C@@H]([C@H]3O[C@@](O)(CO)[C@H](C)C[C@@H]3C)C[C@@H]2C)CC[C@@H]([C@]2(C)CC[C@]3(C[C@H](O)[C@@H](C)[C@@H]([C@@H](C)[C@@H](OC)[C@H](C)C(=O)Nc4ccccc4)O3)O2)O1	8.37 µM (≈ 6.24 µg/mL)	8.37 µM (≈ 6.24 µg/mL)	33.5 µM (≈ 25 µg/mL)	16.8 µM (≈ 12.5 µg/mL)	16.8 µM (≈ 12.5 µg/mL)	8.37 µM (≈ 6.24 µg/mL)	8.37 µM (≈ 6.24 µg/mL)	8.37 µM (≈ 6.24 µg/mL)	33.5 µM (≈ 25 µg/mL)	8.37 µM (≈ 6.24 µg/mL)	8.37 µM (≈ 6.24 µg/mL)	8.37 µM (≈ 6.24 µg/mL)	8.37 µM (≈ 6.24 µg/mL)	8.37 µM (≈ 6.24 µg/mL)	16.8 µM (≈ 12.5 µg/mL)	33.5 µM (≈ 25 µg/mL)	8.37 µM (≈ 6.24 µg/mL)	8.37 µM (≈ 6.24 µg/mL)	8.37 µM (≈ 6.24 µg/mL)	16.8 µM (≈ 12.5 µg/mL)	MIC [21]: 8.37 µM (≈ 6.24 µg/mL); MIC [22]: 8.37 µM (≈ 6.24 µg/mL); MIC [23]: 8.37 µM (≈ 6.24 µg/mL); MIC [24]: 8.37 µM (≈ 6.24 µg/mL); MIC [25]: 8.37 µM (≈ 6.24 µg/mL); MIC [26]: 8.37 µM (≈ 6.24 µg/mL); MIC [27]: 8.37 µM (≈ 6.24 µg/mL); MIC [28]: 8.37 µM (≈ 6.24 µg/mL); MIC [29]: 16.8 µM (≈ 12.5 µg/mL); MIC [30]: 8.37 µM (≈ 6.24 µg/mL)
CC[C@@]1([C@@H]2O[C@@H]([C@H]3O[C@@](O)(CO)[C@H](C)C[C@@H]3C)C[C@@H]2C)CC[C@H]([C@]2(C)CC[C@]3(C[C@H](O)[C@@H](C)[C@@H]([C@@H](C)[C@@H](OC)[C@H](C)C(=O)O)O3)O2)O1 [MONENSIN]	2.98 µM (≈ 2 µg/mL)	1.49 µM (≈ 1 µg/mL)	2.98 µM (≈ 2 µg/mL)	2.98 µM (≈ 2 µg/mL)	2.98 µM (≈ 2 µg/mL)	1.49 µM (≈ 1 µg/mL)	2.98 µM (≈ 2 µg/mL)	1.49 µM (≈ 1 µg/mL)	5.96 µM (≈ 4 µg/mL)	1.49 µM (≈ 1 µg/mL)	1.49 µM (≈ 1 µg/mL)	2.98 µM (≈ 2 µg/mL)	2.98 µM (≈ 2 µg/mL)	1.49 µM (≈ 1 µg/mL)	2.98 µM (≈ 2 µg/mL)	5.96 µM (≈ 4 µg/mL)	2.98 µM (≈ 2 µg/mL)	1.49 µM (≈ 1 µg/mL)	2.98 µM (≈ 2 µg/mL)	2.98 µM (≈ 2 µg/mL)	MIC [21]: 1.49 µM (≈ 1 µg/mL); MIC [22]: 1.49 µM (≈ 1 µg/mL); MIC [23]: 1.49 µM (≈ 1 µg/mL); MIC [24]: 1.49 µM (≈ 1 µg/mL); MIC [25]: 1.49 µM (≈ 1 µg/mL); MIC [26]: 2.98 µM (≈ 2 µg/mL); MIC [27]: 2.98 µM (≈ 2 µg/mL); MIC [28]: 2.98 µM (≈ 2 µg/mL); MIC [29]: 2.98 µM (≈ 2 µg/mL); MIC [30]: 2.98 µM (≈ 2 µg/mL)
